The text below walks through data of ChEMBL document CHEMBL4622941, “Discovery of ASP5286: A novel non-immunosuppressive cyclophilin inhibitor for the treatment of HCV” (Bioorg Med Chem Lett, 2020).

A short description of series [1]: Inhibition of cyclophilin in Hepatitis C virus assessed as inhibition of viral replicon replication in presence of 5% FBS by qRT-PCR analysis. More on the design: species or system Hepacivirus hominis.
The next series concerns Splenocyte. The series can be described thus: Immunosuppressive activity in mouse splenocytes assessed as inhibition of ConA- induced proliferation. It is filed as functional, cell-based.
A short description of series [2]: Inhibition of cyclophilin in Hepatitis C virus assessed as inhibition of viral replicon replication by qRT-PCR analysis. Details: species or system Hepacivirus hominis. On the technique in general: Replicon systems follow genome replication, usually without infectious particles.
Series [3] can be described thus: Aqueous solubility of the compound at pH 6.8. It counts as physicochemical.
Series [4] is described as follows: Inhibition of cyclophilin in Hepatitis C virus assessed as inhibition of viral replicon replication in presence of 10% HSA by qRT-PCR analysis. More on the design: species or system Hepacivirus hominis.
Series [5] in a line: AUC (0 to 24 hrs) in po dosed rat. The note with it: in vivo. It is filed as ADME, organism-based. More on the design: time < 24 hr, route oral.
Series [6] is described as follows: Oral bioavailability in rat. It counts as ADME, organism-based. The note with it: in vivo.
Series [7] has as its system Hepatitis C virus. The series can be described thus: Antiviral activity against Hepatitis C virus genotype 1b infected in humanized liver SCID-Alb/uPA chimeric mouse assessed as reduction in serum HCV RNA level at 3.75 to 30 mg/kg, po bid administered via gavage for 14 days measured after 7 days without compound administration post-last dose. It counts as functional, organism-based. As to conditions: Hepacivirus hominis, subtype 1b.

Series [8] concerns Hepatitis C virus. The series can be described thus: Antiviral activity against Hepatitis C virus genotype 1b infected in humanized liver SCID-Alb/uPA chimeric mouse assessed as reduction in serum HCV RNA level at 3.75 to 30 mg/kg, po bid administered via gavage for 14 days cotreated with peginterferon-alpha2a at 10 ug/kg, sc administered twice a week and measured after 7 days without compound administration post-last dose. It counts as functional, organism-based. As to conditions: Hepacivirus hominis, subtype 1b.

The structures appear in SMILES notation. Values after ≈ are worked out from the molar mass of the structure shown. Active and inactive are the calls of the source. No cut-off for these calls is given here. Where a SMILES comes first, the peptide text is derived from it. [ ]: non-standard residue; d: D form. MeBmt = C/C=C/C[C@@H](C)[C@@H](O)[C@H](NC)C(=O)O; NMePhg = CN[C@H](C(=O)O)c1ccccc1; NMeT = CN[C@H](C(=O)O)[C@@H](C)O; NMeL = CN[C@@H](CC(C)C)C(=O)O; NMeV = CN[C@H](C(=O)O)C(C)C; dNMeA = CN[C@H](C)C(=O)O; Sar = CNCC(=O)O

Usually EC50 stands for the concentration giving half of the maximal effect. For orientation: IC50 means the concentration that gives 50% inhibition. What is called solubility is the concentration that dissolves in the medium under given conditions. A lower solubility goes with a poorly soluble substance. As a reminder, the AUC(0-t) is the area under the concentration-time curve up to a stated or last time point. Low readings indicate low exposure, high ones high exposure. A word on the bioavailability: it is the share of a dose that reaches the circulation, judged against a reference dose that is usually intravenous. Read a high bioavailability as good availability. For the compound `C/C=C/C[C@@H](C)[C@@H](O)[C@H]1C(=O)N[C@@H]([C@@H](C)O)C(=O)N(C)CC(=O)N(C)[C@@H]([C@@H](C)CC)C(=O)N[C@@H](CC(C)C)C(=O)N(C)[C@@H](CC(C)C)C(=O)N[C@@H](C)C(=O)N[C@H](C)C(=O)N(C)[C@@H](CC(C)C)C(=O)N[C@@H](CC(C)C)C(=O)N(C)[C@@H](C(C)C)C(=O)N1C`, the EC50 in series [1] amounted to 0.15 µg/mL; in series [2], 0.15 µg/mL (≈ 0.123 µM); in series [4], 2 µg/mL. In the series with Splenocyte, the IC50 was 0.77 µg/mL (≈ 0.632 µM). The amount in solution in [3] (solubility) came to 0.2 µg/mL (≈ 0.164 µM). In [5], this compound came in with an AUC(0-t) at 24 h of 111 ng·h/mL. Moreover, the bioavailability in [6] was 2.1%.

`C/C=C/C[C@@H](C)[C@@H](O)[C@H]1C(=O)N[C@@H]([C@@H](C)O)C(=O)N(C)[C@H](C)C(=O)N(C)[C@@H]([C@@H](C)OC)C(=O)N[C@@H](CC(C)C)C(=O)N(C)[C@@H](CC(C)C)C(=O)N[C@@H](C)C(=O)N[C@H](C)C(=O)N(C)[C@@H](CC(C)C)C(=O)N[C@@H](CC(C)C)C(=O)N(C)[C@@H](C(C)C)C(=O)N1C` (cyclo(A[dA][NMeL]L[NMeV][MeBmt]T[dNMeA][NMeT](Me)L[NMeL])): the figures for the EC50 in series [1] and in [4] were 0.04 µg/mL and 0.061 µg/mL, respectively. In addition, in the series on Splenocyte, the 50% inhibitory concentration (IC50) was 0.97 µg/mL (≈ 0.786 µM). Besides, the outcome in the series with Hepatitis C virus [7] and with Hepatitis C virus [8] was Active. Besides, the solubility in series [3] worked out at 117 µg/mL (≈ 94.8 µM). In addition, the AUC(0-t) at 24 h in [5] worked out at 16100 ng·h/mL. This compound also showed a bioavailability in series [6] of 36%.

`C/C=C/C[C@@H](C)[C@@H](O)[C@H]1C(=O)N[C@@H]([C@@H](C)O)C(=O)N(C)CC(=O)N(C)[C@@H](CC2CCCCC2)C(=O)N[C@@H](CC(C)C)C(=O)N(C)[C@@H](CC(C)C)C(=O)N[C@@H](C)C(=O)N[C@H](C)C(=O)N(C)[C@@H](CC(C)C)C(=O)N[C@@H](CC(C)C)C(=O)N(C)[C@@H](C(C)C)C(=O)N1C`: the IC50 in the series on Splenocyte was found to be 0.065 µg/mL (≈ 0.0516 µM). In addition, in series [2], the EC50 worked out at 0.086 µg/mL (≈ 0.0683 µM).

Turning to `C/C=C/C[C@@H](C)[C@@H](O)[C@H]1C(=O)N[C@@H]([C@@H](C)O)C(=O)N(C)[C@H](C)C(=O)N(C)[C@@H]([C@@H](C)CC)C(=O)N[C@@H](CC(C)C)C(=O)N(C)[C@@H](CC(C)C)C(=O)N[C@@H](C)C(=O)N[C@H](C)C(=O)N(C)[C@@H](CC(C)C)C(=O)N[C@@H](CC(C)C)C(=O)N(C)[C@@H](C(C)C)C(=O)N1C`, the values for the EC50 in series [1], in [2] and in series [4] were 0.039 µg/mL, 0.039 µg/mL (≈ 0.0316 µM) and 0.05 µg/mL, respectively. Moreover, in the series with Splenocyte, the half-maximal inhibitory concentration (IC50) was 1.1 µg/mL (≈ 0.892 µM). Moreover, in series [3], the solubility was below 0.1 µg/mL. Moreover, in [5], the exposure AUC(0-t) at 24 h was 13300 ng·h/mL. In addition, the bioavailability in series [6] is 49%.

For the compound `C/C=C/C[C@@H](C)[C@@H](O)[C@H]1C(=O)N[C@@H]([C@@H](C)O)C(=O)N(C)[C@H](C)C(=O)N(C)[C@@H](CC(C)C)C(=O)N[C@@H](CC(C)C)C(=O)N(C)[C@@H](CC(C)C)C(=O)N[C@@H](C)C(=O)N[C@H](C)C(=O)N(C)[C@@H](CC(C)C)C(=O)N[C@@H](CC(C)C)C(=O)N(C)[C@@H](C(C)C)C(=O)N1C`, the EC50 in series [1] is 0.038 µg/mL; in [2], 0.038 µg/mL (≈ 0.0308 µM); in [4], 0.35 µg/mL. The IC50 in the series on Splenocyte is 0.07 µg/mL (≈ 0.0568 µM). This compound also had an area under the curve AUC(0-t) at 24 h in [5] of 4210 ng·h/mL. In addition, in series [6], the bioavailability came out at 40%.

For the compound `C/C=C/C[C@@H](C)[C@@H](O)[C@H]1C(=O)N[C@@H]([C@@H](C)O)C(=O)N(C)[C@H](C)C(=O)N(C)[C@@H]([C@@H](C)OC(C)(C)C)C(=O)N[C@@H](CC(C)C)C(=O)N(C)[C@@H](CC(C)C)C(=O)N[C@@H](C)C(=O)N[C@H](C)C(=O)N(C)[C@@H](CC(C)C)C(=O)N[C@@H](CC(C)C)C(=O)N(C)[C@@H](C(C)C)C(=O)N1C`, the EC50 in series [1] was determined as 0.03 µg/mL; in series [4], 0.11 µg/mL. Moreover, the IC50 in the series on Splenocyte amounted to 1.6 µg/mL (≈ 1.25 µM). In series [3], the solubility was below 0.1 µg/mL. Moreover, the AUC(0-t) at 24 h in series [5] turned out to be 9450 ng·h/mL. Also, the bioavailability in [6] amounted to 74%.

Turning to `C/C=C/C[C@@H](C)[C@@H](O)[C@H]1C(=O)N[C@@H]([C@@H](C)O)C(=O)N(C)[C@H](C)C(=O)N(C)[C@@H]([C@@H](C)OO)C(=O)N[C@@H](CC(C)C)C(=O)N(C)[C@@H](CC(C)C)C(=O)N[C@@H](C)C(=O)N[C@H](C)C(=O)N(C)[C@@H](CC(C)C)C(=O)N[C@@H](CC(C)C)C(=O)N(C)[C@@H](C(C)C)C(=O)N1C`, the EC50 in series [1] amounted to 0.061 µg/mL; in series [4], 0.086 µg/mL. Moreover, the IC50 in the series with Splenocyte came out at 1.9 µg/mL (≈ 1.54 µM). In series [3], the solubility is above 122 µg/mL. Besides, in [5], the AUC(0-t) at 24 h worked out at 5680 ng·h/mL. The same compound yielded a bioavailability in [6] of 32%.

Regarding `C/C=C/C[C@@H](C)[C@@H](O)[C@H]1C(=O)N[C@@H]([C@@H](C)O)C(=O)N(C)CC(=O)N(C)[C@@H](CC(C)C)C(=O)N[C@@H](CC(C)C)C(=O)N(C)[C@@H](CC(C)C)C(=O)N[C@@H](C)C(=O)N[C@H](C)C(=O)N(C)[C@@H](CC(C)C)C(=O)N[C@@H](CC(C)C)C(=O)N(C)[C@@H](C(C)C)C(=O)N1C` (cyclo(A[dA][NMeL]L[NMeV][MeBmt]T[Sar][NMeL]L[NMeL])), the EC50 was 0.096 µg/mL in [1], 0.096 µg/mL (≈ 0.0788 µM) in series [2] and 0.37 µg/mL in series [4]. Moreover, the half-maximal inhibitory concentration (IC50) with Splenocyte came to 0.026 µg/mL (≈ 0.0213 µM). Moreover, the concentration in solution in series [3] (solubility) came to 6.5 µg/mL (≈ 5.33 µM). Moreover, in series [5], the AUC(0-t) at 24 h amounted to 140 ng·h/mL. Also, in series [6], the bioavailability was found to be 4.3%.

For `C/C=C/C[C@@H](C)[C@@H](O)[C@H]1C(=O)N[C@@H]([C@@H](C)O)C(=O)N(C)[C@H](C)C(=O)N(C)[C@@H](c2ccccc2)C(=O)N[C@@H](CC(C)C)C(=O)N(C)[C@@H](CC(C)C)C(=O)N[C@@H](C)C(=O)N[C@H](C)C(=O)N(C)[C@@H](CC(C)C)C(=O)N[C@@H](CC(C)C)C(=O)N(C)[C@@H](C(C)C)C(=O)N1C` (cyclo(A[dA][NMeL]L[NMeV][MeBmt]T[dNMeA][NMePhg]L[NMeL])), the IC50 with Splenocyte stood at 1.35 µg/mL (≈ 1.08 µM). Besides, the EC50 in [2] is 0.084 µg/mL (≈ 0.0671 µM).

Take `C/C=C/C[C@@H](C)[C@@H](O)[C@H]1C(=O)N[C@@H]([C@@H](C)O)C(=O)N(C)[C@H](C)C(=O)N(C)[C@@H](C2CCCCC2)C(=O)N[C@@H](CC(C)C)C(=O)N(C)[C@@H](CC(C)C)C(=O)N[C@@H](C)C(=O)N[C@H](C)C(=O)N(C)[C@@H](CC(C)C)C(=O)N[C@@H](CC(C)C)C(=O)N(C)[C@@H](C(C)C)C(=O)N1C`: the IC50 with Splenocyte was 0.35 µg/mL (≈ 0.278 µM). Moreover, the EC50 in series [2] stood at 0.042 µg/mL (≈ 0.0334 µM).

For `C/C=C/C[C@@H](C)[C@@H](O)[C@H]1C(=O)N[C@@H]([C@@H](C)O)C(=O)N(C)CC(=O)N(C)[C@@H](c2ccccc2)C(=O)N[C@@H](CC(C)C)C(=O)N(C)[C@@H](CC(C)C)C(=O)N[C@@H](C)C(=O)N[C@H](C)C(=O)N(C)[C@@H](CC(C)C)C(=O)N[C@@H](CC(C)C)C(=O)N(C)[C@@H](C(C)C)C(=O)N1C`, in the series on Splenocyte, the IC50 was 0.8 µg/mL (≈ 0.646 µM). Moreover, in series [2], the EC50 turned out to be 0.12 µg/mL (≈ 0.0969 µM).

Regarding `C/C=C/C[C@@H](C)[C@@H](O)[C@H]1C(=O)N[C@@H]([C@@H](C)O)C(=O)N(C)CC(=O)N(C)[C@@H](C2CCCCC2)C(=O)N[C@@H](CC(C)C)C(=O)N(C)[C@@H](CC(C)C)C(=O)N[C@@H](C)C(=O)N[C@H](C)C(=O)N(C)[C@@H](CC(C)C)C(=O)N[C@@H](CC(C)C)C(=O)N(C)[C@@H](C(C)C)C(=O)N1C`, in the series on Splenocyte, the IC50 worked out at 0.41 µg/mL (≈ 0.329 µM). Besides, the EC50 in series [2] was found to be 0.063 µg/mL (≈ 0.0506 µM).
